According to patent publication US9604935B2, “Deuterated phenyl amino pyrimidine compound and pharmaceutical composition containing the same” (Suzhou Zelgen Biopharmaceuticals Co., Ltd., priority 2013, dated 2017):
Like-named read-outs stand apart in the source and are kept apart here.

Assay: Pharmacokinetic evaluation in rats
Assay type: in vivo
Details: male, Sprague-Dawley, rat, plasma, po, 3 mg/kg, 3 mg/kg by gavage
Procedure: 12 male Sprague-Dawley rats, 7-8 weeks old, of approximately 200 g body weight, were divided into three groups, four in each group.
Rats were feed with standard feed, and were given water, and were started to fast 16 hours before the test. The drug was dissolved in PEG400 and dimethylsulfoxide. Orbital blood collection was conducted, and the blood collection time is 0.25 hour, 0.5 hour, 1 hour, 2 hour, 4 hour, 6 hour, 8 hour, 12 hour, 24 hour, 36 hour and 48 hour after administration.
After inhalation of ether, the rats were shortly anesthesiaed; 300 μL of blood were collected from orbit into a test tube. There were 30 μL of 1% heparin saline solutions in the test tube. Before use, test tubes were dried overnight at 60° C. After the blood sample was collected in the subsequent time point, rats were anesthetized with ether and sacrificed.
After blood sampling, the tube was gently inverted at least 5 times immediately to ensure adequate mixing, and was placed on ice. Blood samples were 5000 rpm centrifuged at 4° C. for 5 minutes to separate the plasma and red blood cells. 100 μL of plasma was pipetted into a clean plastic centrifuge tube, and the name of compounds and the time point were indicated. Plasma was stored in −80° C. before use for the analysis. The concentration of the compound of the invention in plasma was determined with LC-MS/MS. The pharmacokinetic parameters were calculated based on the blood drug concentration of each animal at different time points.

N#CCNC(=O)c1ccc(-c2ccnc(Nc3ccc(N4CCOCC4)cc3)n2)cc1 [example 9, N-(cyanomethyl)-4-(2-(4-morpholinophenylamino)pyrimidin-4-yl)benzamide, reference compound]
AUC(0-t) (group G1 (Table 1), mean±SD): 1620 ± 932 ng·h/mL | Cmax (group G1 (Table 1), mean±SD): 245 ± 140 ng/mL | AUC(0-t) (group G1, Mean of 4 rats): 1620 ng·h/mL | Cmax (group G1, Mean of 4 rats): 245 ng/mL | Tmax (group G1, Mean of 4 rats): 2.56 h | AUC(0-inf) (group G1, Mean of 4 rats, read-out: AUCINF_obs): 1650 ng·h/mL | AUC(0-t) (group G1, rat 1): 2290 ng·h/mL | Cmax (group G1, rat 1): 368 ng/mL | Tmax (group G1, rat 1): 0.25 h | AUC(0-inf) (group G1, rat 1, read-out: AUCINF_obs): 2300 ng·h/mL | AUC(0-t) (group G1, rat 2): 443 ng·h/mL | Cmax (group G1, rat 2): 79.4 ng/mL | Tmax (group G1, rat 2): 4 h | AUC(0-inf) (group G1, rat 2, read-out: AUCINF_obs): 480 ng·h/mL | AUC(0-t) (group G1, rat 3): 2440 ng·h/mL | Cmax (group G1, rat 3): 354 ng/mL | Tmax (group G1, rat 3): 4 h | AUC(0-inf) (group G1, rat 3, read-out: AUCINF_obs): 2510 ng·h/mL | AUC(0-t) (group G1, rat 4): 1320 ng·h/mL | Cmax (group G1, rat 4): 180 ng/mL | Tmax (group G1, rat 4): 2 h | AUC(0-inf) (group G1, rat 4, read-out: AUCINF_obs): 1330 ng·h/mL | AUC(0-t) (group G2 (Table 2), mean±SD): 3210 ± 744 ng·h/mL | Cmax (group G2 (Table 2), mean±SD): 589 ± 190 ng/mL | AUC(0-t) (group G2, Mean of 4 rats): 3210 ng·h/mL | Cmax (group G2, Mean of 4 rats): 589 ng/mL | Tmax (group G2, Mean of 4 rats): 3.5 h | AUC(0-inf) (group G2, Mean of 4 rats, read-out: AUCINF_obs): 3240 ng·h/mL | AUC(0-t) (group G2, rat 5): 4080 ng·h/mL | Cmax (group G2, rat 5): 858 ng/mL | Tmax (group G2, rat 5): 2 h | AUC(0-inf) (group G2, rat 5, read-out: AUCINF_obs): 4110 ng·h/mL | AUC(0-t) (group G2, rat 6): 3320 ng·h/mL | Cmax (group G2, rat 6): 567 ng/mL | Tmax (group G2, rat 6): 4 h | AUC(0-inf) (group G2, rat 6, read-out: AUCINF_obs): 3340 ng·h/mL | AUC(0-t) (group G2, rat 7): 3180 ng·h/mL | Cmax (group G2, rat 7): 514 ng/mL | Tmax (group G2, rat 7): 4 h | AUC(0-inf) (group G2, rat 7, read-out: AUCINF_obs): 3210 ng·h/mL | AUC(0-t) (group G2, rat 8): 2270 ng·h/mL | Cmax (group G2, rat 8): 415 ng/mL | Tmax (group G2, rat 8): 4 h | AUC(0-inf) (group G2, rat 8, read-out: AUCINF_obs): 2300 ng·h/mL | AUC(0-t) (group G3 (Table 3), mean±SD): 2190 ± 814 ng·h/mL | Cmax (group G3 (Table 3), mean±SD): 365 ± 146 ng/mL | AUC(0-t) (group G3, Mean of 4 rats): 2190 ng·h/mL | Cmax (group G3, Mean of 4 rats): 365 ng/mL | Tmax (group G3, Mean of 4 rats): 3.5 h | AUC(0-inf) (group G3, Mean of 4 rats, read-out: AUCINF_obs): 2240 ng·h/mL | AUC(0-t) (group G3, rat 9): 3420 ng·h/mL | Cmax (group G3, rat 9): 579 ng/mL | Tmax (group G3, rat 9): 4 h | AUC(0-inf) (group G3, rat 9, read-out: AUCINF_obs): 3480 ng·h/mL | AUC(0-t) (group G3, rat 10): 1800 ng·h/mL | Cmax (group G3, rat 10): 336 ng/mL | Tmax (group G3, rat 10): 4 h | AUC(0-inf) (group G3, rat 10, read-out: AUCINF_obs): 1850 ng·h/mL | AUC(0-t) (group G3, rat 11): 1750 ng·h/mL | Cmax (group G3, rat 11): 276 ng/mL | Tmax (group G3, rat 11): 2 h | AUC(0-inf) (group G3, rat 11, read-out: AUCINF_obs): 1800 ng·h/mL | AUC(0-t) (group G3, rat 12): 1810 ng·h/mL | Cmax (group G3, rat 12): 270 ng/mL | Tmax (group G3, rat 12): 4 h | AUC(0-inf) (group G3, rat 12, read-out: AUCINF_obs): 1840 ng·h/mL
